Experimental data: US9428508B2, “2,4-diamino-6,7-dihydro-5H-pyrrolo[2,3]pyrimidine derivatives as FAK/Pyk2 inhibitors” (Centaurus BioPharma Co., Ltd., priority 2011, dated 2016)
pIC50: −log10 of the molar value.

Experiments:
FAK = FAK (Homo sapiens (Human), UniProt Q05397); assay: Biochemical assay for FAK activity (LANCE TR-FRET, ULight-poly Glu,Ala,Tyr substrate); conditions: GST-tagged FAK, 120 min reaction
Protocol: (§1) Biochemical Assay for FAK/Pyk2 Activity
(§2) GST-tagged FAK was purchased from Invitrogen (PV3832). GST-tagged PYK2 was purchased from Invitrogen (PV4567). The activity of FAK/PYK2 was measured by monitoring the phosphorylation of a fluorophore labeled ULight-poly Glu, Ala, Tyr (1:1:1) peptide substrate from Perkin Elmer (TRF0101) in the presence of ATP. The phosphorylated tyrosine residue was recognized by a LANCE Europium chelate labeled anti-phosphotyrosine (PY20) antibody from Perkin Elmer (AD0066). This brought the fluorophore and europium chelate in close proximity ([…]) that upon excitation at 320 nm by an Envision (PerkinElmer), energy can be transferred from the donor Europium chelate to the acceptor fluorophore. […] The strength of the signal was, therefore, directly proportional to the FAK/PYK2 activity.
(§3) To measure inhibitory activity of FAK/PYK2 inhibitors, compounds were first prepare as a 1 mM stock in 100% DMSO and 3-fold serial dilution was performed in a 96-well plate (Corning, 3897) to generate 12 different concentration of 100× stock. A 5 μl of 100× stock of each concentration was added to wells containing 95 μl of 1× reaction buffer (40 mM Tris, pH7.5, […], 1 mM DTT and 1 mM CHAPS) to generate 5× stock. Then 2 μl of 5× stock of each concentration was added to a 384 wells-OptiPlate (PerkinElmer, 6007299).
(§4) For FAK, 4 μl of 2.5 nM FAK, 1 ul of 8 μg/μl BSA and 1.5 μl of 666 nM ULight-poly Glu, Ala, Tyr (1:1:1) peptide substrate, prepared in above reaction buffer, were added to each well. The reaction was initiated by adding 1.5 μl of 33.3 μM ATP. The reaction was allowed to proceed for 120 min before being quenched with 5 μl of 40 mM EDTA stop buffer prepared in 1×LANCE detection buffer (PerkinElmer, CR97-100).
(§5) Upon quenching of the reaction, 5 μl of 8 nM anti-phosphotyrosine antibody was added to each well and incubated for 60 minutes. The plate was measured using an Envision (PerkinElmer) based on the theory mentioned above.

PYK2 = PYK2 (Homo sapiens (Human), UniProt Q14289); assay: Biochemical assay for PYK2 activity (LANCE TR-FRET, ULight-poly Glu,Ala,Tyr substrate); conditions: GST-tagged PYK2, 40 min reaction
PYK2, sequence (Q14289 whole entry): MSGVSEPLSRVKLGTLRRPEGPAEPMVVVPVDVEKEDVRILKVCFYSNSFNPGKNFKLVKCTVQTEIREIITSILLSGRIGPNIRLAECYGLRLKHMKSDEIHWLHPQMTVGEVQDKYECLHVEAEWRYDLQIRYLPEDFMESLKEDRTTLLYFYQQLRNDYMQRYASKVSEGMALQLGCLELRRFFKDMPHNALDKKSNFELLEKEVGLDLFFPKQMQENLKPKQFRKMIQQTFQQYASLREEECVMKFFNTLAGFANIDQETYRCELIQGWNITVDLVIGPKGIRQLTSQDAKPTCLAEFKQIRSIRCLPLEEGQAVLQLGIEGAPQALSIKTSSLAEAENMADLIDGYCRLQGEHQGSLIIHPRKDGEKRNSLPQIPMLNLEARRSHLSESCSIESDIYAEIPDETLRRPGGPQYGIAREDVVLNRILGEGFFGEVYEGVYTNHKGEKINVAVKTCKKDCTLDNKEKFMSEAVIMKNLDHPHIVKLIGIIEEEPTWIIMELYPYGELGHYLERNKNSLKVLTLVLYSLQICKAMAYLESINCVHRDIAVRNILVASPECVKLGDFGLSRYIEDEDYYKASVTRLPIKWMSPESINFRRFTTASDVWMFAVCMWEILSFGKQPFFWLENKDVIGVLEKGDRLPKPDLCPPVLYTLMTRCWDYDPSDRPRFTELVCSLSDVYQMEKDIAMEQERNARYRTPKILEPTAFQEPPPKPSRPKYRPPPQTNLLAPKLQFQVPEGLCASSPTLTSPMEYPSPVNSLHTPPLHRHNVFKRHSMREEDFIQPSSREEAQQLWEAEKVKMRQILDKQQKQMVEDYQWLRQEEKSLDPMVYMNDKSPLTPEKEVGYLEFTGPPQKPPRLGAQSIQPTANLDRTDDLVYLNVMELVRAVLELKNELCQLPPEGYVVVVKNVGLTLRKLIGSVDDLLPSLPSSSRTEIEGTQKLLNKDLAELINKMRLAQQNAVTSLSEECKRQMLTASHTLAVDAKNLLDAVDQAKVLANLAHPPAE
Protocol: as §1, §2, §3
as §4, with “PYK2, 5” for “FAK, 4”, “2” for “2.5”, “PYK2” for “FAK, 1 ul of 8 μg/μl BSA”, “46.6” for “33.3”, “40” for “120”
as §5

FAK, sequence (Q05397 whole entry): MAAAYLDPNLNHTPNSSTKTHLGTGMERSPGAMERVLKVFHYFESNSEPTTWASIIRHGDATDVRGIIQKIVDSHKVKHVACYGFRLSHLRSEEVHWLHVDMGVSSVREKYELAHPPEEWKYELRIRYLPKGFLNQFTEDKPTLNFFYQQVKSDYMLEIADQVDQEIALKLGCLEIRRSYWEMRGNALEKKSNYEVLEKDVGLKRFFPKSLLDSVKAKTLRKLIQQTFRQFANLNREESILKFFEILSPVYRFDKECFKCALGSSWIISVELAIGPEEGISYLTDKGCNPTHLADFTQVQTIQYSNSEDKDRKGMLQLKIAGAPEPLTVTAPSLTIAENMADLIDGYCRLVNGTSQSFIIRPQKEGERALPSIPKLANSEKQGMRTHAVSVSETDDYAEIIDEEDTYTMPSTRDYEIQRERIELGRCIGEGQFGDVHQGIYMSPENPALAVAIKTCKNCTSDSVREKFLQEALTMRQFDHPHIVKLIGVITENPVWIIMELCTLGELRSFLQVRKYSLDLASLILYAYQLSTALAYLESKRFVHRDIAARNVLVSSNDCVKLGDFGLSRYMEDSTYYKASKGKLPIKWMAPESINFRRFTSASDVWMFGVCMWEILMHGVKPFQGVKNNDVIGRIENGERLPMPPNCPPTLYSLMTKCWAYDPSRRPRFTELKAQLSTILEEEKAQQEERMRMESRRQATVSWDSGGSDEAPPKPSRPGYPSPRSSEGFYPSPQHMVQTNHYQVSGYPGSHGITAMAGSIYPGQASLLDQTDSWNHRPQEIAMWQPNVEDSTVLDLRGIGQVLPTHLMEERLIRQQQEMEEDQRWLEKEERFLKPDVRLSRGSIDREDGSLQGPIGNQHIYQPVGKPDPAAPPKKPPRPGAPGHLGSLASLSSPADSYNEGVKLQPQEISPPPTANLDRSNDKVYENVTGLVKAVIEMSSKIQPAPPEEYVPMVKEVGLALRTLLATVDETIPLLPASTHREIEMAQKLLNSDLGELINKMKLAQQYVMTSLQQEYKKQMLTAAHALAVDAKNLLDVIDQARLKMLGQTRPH

| pIC50 (FAK) | pIC50 (PYK2) | SMILES |
| --- | --- | --- |
| > 7.30 | > 7.30 | COc1cc(N2CCOCC2)ccc1Nc1nc2c(c(Nc3ccccc3NC(C)=O)n1)C1(CC1)CN2 [Example 155, N-(2-(2′-(2-methoxy-4-morpholinophenylamino)-6′,7′-dihydrospiro[cyclopropane-1,5′-pyrrolo[2,3-d]pyrimidine]-4′-ylamino)phenyl)acetamide] |
| > 7.70 | > 7.70 | COc1cc(N2CCOCC2)ccc1Nc1nc2c(c(Nc3ccccc3S(=O)(=O)NC3CCC3)n1)C1(CC1)CN2 [Example 150, N-cyclobutyl-2-(2′-(2-methoxy-4-morpholinophenylamino)-6′,7′-dihydrospiro[cyclopropane-1,5′-pyrrolo[2,3-d]pyrimidine]-4′-ylamino)benzenesulfonamide] |
| > 7.70 | > 7.30 | COc1cc(N2CCOCC2)ccc1Nc1nc2c(c(Nc3ccccc3S(=O)(=O)NCCN(C)C)n1)C(C)(C)CN2 [Example 120, N-(2-(dimethylamino)ethyl)-2-(2-(2-methoxy-4-morpholinophenylamino)-5,5-dimethyl-6,7-dihydro-5H-pyrrolo[2,3-d]pyrimidin-4-ylamino)benzenesulfonamide] |
| > 7.00 | > 7.00 | COc1cc(N2CCOCC2)ccc1Nc1nc2c(c(Nc3ccccc3S(=O)(=O)NCC(C)C)n1)CCN2 [Example 45, N-isobutyl-2-(2-(2-methoxy-4-morpholinophenylamino)-6,7-dihydro-5H-pyrrolo[2,3-d]pyrimidin-4-ylamino)benzenesulfonamide] |
| > 7.70 | > 7.70 | COc1cc(N2CCC(O)CC2)ccc1Nc1nc2c(c(Nc3ccccc3S(=O)(=O)NC(C)C)n1)CCN2 [Example 86, 2-(2-(4-(4-hydroxypiperidin-1-yl)-2-methoxyphenylamino)-6,7-dihydro-5H-pyrrolo[2,3-d]pyrimidin-4-ylamino)-N-isopropylbenzenesulfonamide] |
| > 7.70 | > 7.70 | CCC(C)NS(=O)(=O)c1ccccc1Nc1nc(Nc2ccc(N3CCOCC3)cc2OC)nc2c1C(C)(C)CN2 (stereo not shown) [Example 112, N-sec-butyl-2-(2-(2-methoxy-4-morpholinophenylamino)-5,5-dimethyl-6,7-dihydro-5H-pyrrolo[2,3-d]pyrimidin-4-ylamino)benzenesulfonamide] |
| > 7.70 | > 7.00 | COc1cc(N2CCC(O)C2)ccc1Nc1nc2c(c(Nc3ccccc3S(=O)(=O)NC(C)C)n1)CCN2 (stereo not shown) [Example 80, 2-(2-(4-(3-hydroxypyrrolidin-1-yl)-2-methoxyphenylamino)-6,7-dihydro-5H-pyrrolo[2,3-d]pyrimidin-4-ylamino)-N-isopropylbenzenesulfonamide] |
| > 7.00 | > 6.70 | CNC(=O)c1ccccc1Nc1nc(Nc2cccc3c2ccn3CCCN2CCOCC2)nc2c1CCN2 [Example 22, N-methyl-2-(2-(1-(3-morpholinopropyl)-1H-indol-4-ylamino)-6,7-dihydro-5H-pyrrolo[2,3-d]pyrimidin-4-ylamino)benzamide] |
| > 6.00 | > 6.00 | COc1cc(N2CCOCC2)ccc1Nc1nc2c(c(Nc3ccccc3C=O)n1)CCN2 [Example 161, 2-(2-(2-methoxy-4-morpholinophenylamino)-6,7-dihydro-5H-pyrrolo[2,3-d]pyrimidin-4-ylamino)benzaldehyde] |
| > 7.00 | > 7.70 | CCNS(=O)(=O)c1ccccc1Nc1nc(Nc2ccc(N3CCOCC3)cc2OC)nc2c1CCN2 [Example 43, N-ethyl-2-(2-(2-methoxy-4-morpholinophenylamino)-6,7-dihydro-5H-pyrrolo[2,3-d]pyrimidin-4-ylamino)benzenesulfonamide] |
| > 7.30 | > 7.00 | CCCCNS(=O)(=O)c1ccccc1Nc1nc(Nc2ccc(N3CCOCC3)cc2OC)nc2c1CCN2 [Example 39, N-butyl-2-(2-(2-methoxy-4-morpholinophenylamino)-6,7-dihydro-5H-pyrrolo[2,3-d]pyrimidin-4-ylamino)benzenesulfonamide] |
| > 6.00 | > 6.70 | CCN1C(=O)CCCc2c1ccc(Nc1nc3c(c(Nc4ccccc4C(=O)NC)n1)CCN3)c2OC [Example 17, 2-(2-(1-ethyl-6-methoxy-2-oxo-2,3,4,5-tetrahydro-1H-benzo[b]azepin-7-ylamino)-6,7-dihydro-5H-pyrrolo[2,3-d]pyrimidin-4-ylamino)-N-methylbenzamide] |
| < 6.00 | < 6.00 | COc1cc(N2CCOCC2)ccc1Nc1nc2c(c(Nc3ccccc3S(=O)(=O)NCCO)n1)C1(CC1)CN2 [Example 142, N-(2-hydroxyethyl)-2-(2′-(2-methoxy-4-morpholinophenylamino)-6′,7′-dihydrospiro[cyclopropane-1,5′-pyrrolo[2,3-d]pyrimidine]-4′-ylamino)benzenesulfonamide] |
| > 7.70 | > 7.70 | COc1cc(N2CCOCC2)ccc1Nc1nc2c(c(Nc3ccccc3S(=O)(=O)NC(C)(C)C)n1)C(C)(C)CN2 [Example 117, N-tert-butyl-2-(2-(2-methoxy-4-morpholinophenylamino)-5,5-dimethyl-6,7-dihydro-5H-pyrrolo[2,3-d]pyrimidin-4-ylamino)benzenesulfonamide] |
| < 6.00 | < 6.00 | COc1cc(N2CCOCC2)ccc1Nc1nc2c(c(Nc3ccccc3C(=O)N3CCCC3)n1)CCN2 [Example 3, (2-(2-(2-methoxy-4-morpholinophenylamino)-6,7-dihydro-5H-pyrrolo[2,3-d]pyrimidin-4-ylamino)phenyl)(pyrrolidin-1-yl)methanone] |
| > 7.70 | > 7.70 | COc1cc(N2CCC(N(C)C)CC2)ccc1Nc1nc2c(c(Nc3ccccc3S(=O)(=O)NC(C)C)n1)CCN2 [Example 76, 2-(2-(4-(4-(dimethylamino)piperidin-1-yl)-2-methoxyphenylamino)-6,7-dihydro-5H-pyrrolo[2,3-d]pyrimidin-4-ylamino)-N-isopropylbenzenesulfonamide] |
| > 6.70 | > 6.30 | COc1cc(N2CCOCC2)ccc1Nc1nc2c(c(Nc3ccccc3C(=O)N3CCCC3)n1)C(C)CN2 (racemic) [Example 24, (±)-(2-(2-(2-methoxy-4-morpholinophenylamino)-5-methyl-6,7-dihydro-5H-pyrrolo[2,3-d]pyrimidin-4-ylamino)phenyl)(pyrrolidin-1-yl)methanone] |
| > 7.30 | > 7.00 | COc1cc(N2CCOCC2)ccc1Nc1nc2c(c(Nc3ccccc3N(C)S(C)(=O)=O)n1)C(C)(C)CN2 [Example 122, N-(2-(2-(2-methoxy-4-morpholinophenylamino)-5,5-dimethyl-6,7-dihydro-5H-pyrrolo[2,3-d]pyrimidin-4-ylamino)phenyl)-N-methylmethanesulfonamide] |
| > 7.70 | > 7.70 | COc1cc(-n2ccccc2=O)ccc1Nc1nc2c(c(Nc3ccccc3S(=O)(=O)NC(C)C)n1)CCN2 [Example 83, N-isopropyl-2-(2-(2-methoxy-4-(2-oxopyridin-1(2H)-yl)phenylamino)-6,7-dihydro-5H-pyrrolo[2,3-d]pyrimidin-4-ylamino)benzenesulfonamide] |
| > 7.70 | > 7.70 | COc1cc(N2CCOCC2)ccc1Nc1nc2c(c(Nc3ccccc3N(C)S(C)(=O)=O)n1)C1(CC1)CN2 [Example 156, N-(2-(2′-(2-methoxy-4-morpholinophenylamino)-6′,7′-dihydrospiro[cyclopropane-1,5′-pyrrolo[2,3-d]pyrimidine]-4′-ylamino)phenyl)-N-methylmethanesulfonamide] |
